Seven compounds from ChEMBL document CHEMBL5357001, “Coriaceumins A-D, the First Nitrogen-Containing Crenulide Diterpenoids from the Brown Alga Dictyota coriacea Collected in the East China Sea” (J Nat Prod, 2024) can be followed below.

pIC50: −log10 of the molar value. Calls of active or inactive are those of the source. The calls are words filed in the database; no cut-off is given here.

Broadly, the pIC50 is −log10 of the IC50, conventionally taken in molar units. As a reminder, the inhibition is the share of the control response that was lost under treatment.

The first test has as its target T1, Tyrosine-protein phosphatase non-receptor type 1 (Homo sapiens, UniProt P18031).
T1 sequence (P18031 whole entry): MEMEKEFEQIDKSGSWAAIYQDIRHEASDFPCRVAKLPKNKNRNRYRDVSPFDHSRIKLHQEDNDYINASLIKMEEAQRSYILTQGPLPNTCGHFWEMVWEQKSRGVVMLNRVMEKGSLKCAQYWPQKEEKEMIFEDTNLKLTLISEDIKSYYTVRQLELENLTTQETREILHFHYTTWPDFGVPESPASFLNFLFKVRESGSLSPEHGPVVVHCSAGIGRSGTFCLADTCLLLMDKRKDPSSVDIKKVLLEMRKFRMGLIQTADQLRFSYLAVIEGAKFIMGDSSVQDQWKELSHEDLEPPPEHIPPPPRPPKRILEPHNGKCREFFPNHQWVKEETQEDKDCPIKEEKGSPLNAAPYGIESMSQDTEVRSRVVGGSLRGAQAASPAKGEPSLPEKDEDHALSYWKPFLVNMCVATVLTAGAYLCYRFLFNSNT
Nature of the test: Inhibition of recombinant PTP1B (unknown origin) using pNPP as substrate relative to control.
Details: not given
In the case of `CCO[C@@H]1C/C=C(\C)CC[C@@H]([C@H](C)CCC=C(C)C)C2=C1C(=O)N[C@H]2O`, the pIC50 is 5.02.

Turning to `CC(C)=CCC[C@@H](C)[C@H]1C2=C(C(=O)OC2)[C@H]2C[C@H]2[C@H](C)C[C@H]1O`, the pIC50 was 5.14.

Consider `CC(=O)O[C@@H]1C[C@@H](C)[C@@H]2C[C@@H]2C2=C(C(=O)NC2)[C@@H]1[C@H](C)CCC=C(C)C`, for which the pIC50 was 4.72.

Consider `CC(=O)O[C@@H]1C[C@@H](C)[C@@H]2C[C@@H]2C2=C(CNC2=O)[C@@H]1[C@H](C)CCC=C(C)C`, for which the pIC50 is 4.89.

In the next test the test system is A549. Nature of the test: Cytotoxicity against human A549 cells assessed as reduction in cell viability at 20 uM incubated for 3 days by CCK-8 assay. In kind it is functional, cell-based. Particulars: time 3.0 day. For orientation: Formazan colour is commonly taken as a measure of viable cells.
As to `CCO[C@@H]1C/C=C(\C)CC[C@@H]([C@H](C)CCC=C(C)C)C2=C1C(=O)N[C@H]2O`, the result was inactive.

On to `CC(C)=CCC[C@@H](C)[C@H]1C2=C(C(=O)NC2)[C@H]2C[C@H]2[C@H](C)C[C@H]1O`, for which the result was inactive.

For the compound `CCO[C@@H]1C/C=C(\C)CC[C@@H]([C@H](C)CCC=C(C)C)C2=C1C(=O)N[C@@H]2O`, the result was inactive.

As for `CC(C)=CCC[C@@H](C)[C@H]1C2=C(C(=O)OC2)[C@H]2C[C@H]2[C@H](C)C[C@H]1O`, the result was inactive.

Consider `CC(=O)O[C@@H]1C[C@@H](C)[C@@H]2C[C@@H]2C2=C(C(=O)NC2)[C@@H]1[C@H](C)CCC=C(C)C`, for which the result was inactive.

Regarding `CC(=O)O[C@@H]1C[C@@H](C)[C@@H]2C[C@@H]2C2=C(CNC2=O)[C@@H]1[C@H](C)CCC=C(C)C`, the outcome was inactive.

Turning to `C=C(C)C(=O)CC[C@@H](C)[C@H]1C2=C(CNC2=O)[C@H]2C[C@H]2[C@H](C)C[C@H]1OC(C)=O`, the result was inactive.

The target in another test is T2, Tyrosine-protein phosphatase non-receptor type 1 (Homo sapiens) (UniProt P18031).
T2 sequence (whole entry): T1 sequence (P18031 whole entry)
The test is described as follows: Inhibition of recombinant PTP1B (unknown origin) using pNPP as substrate at 20 uM relative to control.
Details: not given
With `CCO[C@@H]1C/C=C(\C)CC[C@@H]([C@H](C)CCC=C(C)C)C2=C1C(=O)N[C@H]2O`, the inhibition came out at 81%.

Turning to `CC(C)=CCC[C@@H](C)[C@H]1C2=C(C(=O)NC2)[C@H]2C[C@H]2[C@H](C)C[C@H]1O`, the inhibition worked out at 40%.

In the case of `CCO[C@@H]1C/C=C(\C)CC[C@@H]([C@H](C)CCC=C(C)C)C2=C1C(=O)N[C@@H]2O`, the inhibition came out at 38%.

Turning to `CC(C)=CCC[C@@H](C)[C@H]1C2=C(C(=O)OC2)[C@H]2C[C@H]2[C@H](C)C[C@H]1O`, the inhibition is 86%.

As to `CC(=O)O[C@@H]1C[C@@H](C)[C@@H]2C[C@@H]2C2=C(C(=O)NC2)[C@@H]1[C@H](C)CCC=C(C)C`, the inhibition was determined as 52%.

In the case of `CC(=O)O[C@@H]1C[C@@H](C)[C@@H]2C[C@@H]2C2=C(CNC2=O)[C@@H]1[C@H](C)CCC=C(C)C`, the inhibition came out at 73%.

In the case of `C=C(C)C(=O)CC[C@@H](C)[C@H]1C2=C(CNC2=O)[C@H]2C[C@H]2[C@H](C)C[C@H]1OC(C)=O`, the inhibition stood at 47%.

The subject of the next test is HL-60. Nature of the test: Cytotoxicity against human HL-60 cells assessed as reduction in cell viability at 20 uM incubated for 3 days by CCK-8 assay. The settings on record: time 3.0 day. Type of test: functional, cell-based.
For the compound `CCO[C@@H]1C/C=C(\C)CC[C@@H]([C@H](C)CCC=C(C)C)C2=C1C(=O)N[C@H]2O`, the outcome was inactive.

`CC(C)=CCC[C@@H](C)[C@H]1C2=C(C(=O)NC2)[C@H]2C[C@H]2[C@H](C)C[C@H]1O`: the outcome was inactive.

In the case of `CCO[C@@H]1C/C=C(\C)CC[C@@H]([C@H](C)CCC=C(C)C)C2=C1C(=O)N[C@@H]2O`, the result was inactive.

`CC(C)=CCC[C@@H](C)[C@H]1C2=C(C(=O)OC2)[C@H]2C[C@H]2[C@H](C)C[C@H]1O`: the outcome was inactive.

Consider `CC(=O)O[C@@H]1C[C@@H](C)[C@@H]2C[C@@H]2C2=C(C(=O)NC2)[C@@H]1[C@H](C)CCC=C(C)C`, for which the result was inactive.

`CC(=O)O[C@@H]1C[C@@H](C)[C@@H]2C[C@@H]2C2=C(CNC2=O)[C@@H]1[C@H](C)CCC=C(C)C`: the result was inactive.

`C=C(C)C(=O)CC[C@@H](C)[C@H]1C2=C(CNC2=O)[C@H]2C[C@H]2[C@H](C)C[C@H]1OC(C)=O`: the result was inactive.
